Results on 18 compounds are retold here after patent US20240059703A1 (AMGEN INC., priority 2021, published 2024).

One test deals with KRAS G12C (Homo sapiens (Human), UniProt P01116, C118A/G12C). In words: 2 h coupled exchange assay. In kind it is biochemical. Conditions: Avg 2 h Coupled exchange IC50, 2 h compound pre-incubation, SOS-mediated nucleotide exchange. On the procedure:
The term “2 h coupled exchange assay” or “20 h coupled exchange assay” as used herein refers to the assay described in the Section entitled “BIOLOGICAL EVALUATION.”

For test [1], the system named is MIA PaCa-2 (human pancreatic carcinoma) cells. In words: Cell Viability Assay (CellTiter-Glo), MIA PaCa-2. To be noted: Homo sapiens, MIA PaCa-2, 72 h. The test is classed as cell-based. On the procedure: Serially-diluted compound or DMSO was added to the cells, and plates were incubated at 37° C., 5% CO2 for 72 h. Cell viability was measured using a CellTiter-Glo® Luminescent Cell Viability Assay kit (Promega) according to the manufacturer's protocol. The luminescence signal of treated samples was normalized to DMSO control, and data were analyzed using a 4-parameter logistic model to calculate IC50 values.

The test system of test [2] is A549 (human lung carcinoma) cells. In words: Cell Viability Assay (CellTiter-Glo), A549. In kind it is cell-based. To be noted: Homo sapiens, A549, 72 h. Put shortly: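 Seeding at 1.67E+04 cells/mL is followed by overnight attachment at 37° C., 5% CO2. Serially diluted compound is added for 72 h. Viability is read by CellTiter-Glo luminescence, scaled to DMSO and fitted (4-parameter logistic) to give IC50.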

SMILES strings stand for the structures. Where only a bound is given, the exact number is not on record here.

Sequence of KRAS G12C (P01116 other isoform, or with tags, fused parts or gaps G12C/C118A): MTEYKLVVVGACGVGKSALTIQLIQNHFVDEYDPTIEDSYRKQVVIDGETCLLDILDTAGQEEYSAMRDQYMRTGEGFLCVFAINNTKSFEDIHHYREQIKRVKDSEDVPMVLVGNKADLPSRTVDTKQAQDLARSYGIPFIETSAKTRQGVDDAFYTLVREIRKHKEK

Broadly, the IC50 is the concentration at which inhibition is half-maximal. Turning to `C=C(Cl)C(=O)N1CC2(CCN(c3nc4c(c(-c5c(C)ccc6[nH]ncc56)c3C#N)CCC(C)(C)C4)C2)C1` [Example 13-3, 2-(2-(2-chloro-2-propenoyl)-2,6-diazaspiro[3.4]octan-6-yl)-7,7-dimethyl-4-(5-methyl-1H-indazol-4-yl)-5,6,7,8-tetrahydro-3-quinolinecarbonitrile], the IC50 at KRAS G12C was determined as 166 nM; in test [1], 625 nM; in test [2], 1250 nM.

As to `COC/C=C/C(=O)N1CC2(CCN(c3nc4c(c(-c5c(C)ccc6[nH]ncc56)c3C#N)CCC(C)(C)C4)C2)C1` [Example 13-4, 2-(2-((2E)-4-methoxy-2-butenoyl)-2,6-diazaspiro[3.4]octan-6-yl)-7,7-dimethyl-4-(5-methyl-1H-indazol-4-yl)-5,6,7,8-tetrahydro-3-quinolinecarbonitrile], the IC50 against KRAS G12C was 357 nM; in test [1] it was 1620 nM; in test [2], greater than 5000 nM.

For `C=CC(=O)N1CC2(CCN(c3nc4c(c(-c5ccccc5Cl)c3C#N)COC(C)(C)C4)C2)C1` [Example 13-5, 4-(2-chlorophenyl)-7,7-dimethyl-2-(2-(2-propenoyl)-2,6-diazaspiro[3.4]octan-6-yl)-7,8-dihydro-5H-pyrano[4,3-b]pyridine-3-carbonitrile], the IC50 was 973 nM at KRAS G12C, greater than 5000 nM in test [1] and greater than 5000 nM in test [2].

Consider `Cc1ccc2[nH]ncc2c1-c1c(C#N)c(N2CCC3(CN(C(=O)/C=C/C(F)F)C3)C2)nc2c1CCC(C)(C)C2` [Example 13-8, 2-(2-((2E)-4,4-difluoro-2-butenoyl)-2,6-diazaspiro[3.4]octan-6-yl)-7,7-dimethyl-4-(5-methyl-1H-indazol-4-yl)-5,6,7,8-tetrahydro-3-quinolinecarbonitrile], for which the figures for the IC50 (against KRAS G12C; in test [1]; in test [2]) were 44 nM, 218 nM and 3370 nM, respectively.

For `C=CC(=O)N1CC2(CCN(c3nc4c(c(-c5c(C)ccc6[nH]ncc56)c3C#N)CC3(CC4)CC3)C2)C1` [Example 13-11, 4′-(5-methyl-1H-indazol-4-yl)-2′-(2-(2-propenoyl)-2,6-diazaspiro[3.4]octan-6-yl)-7′,8′-dihydro-5′H-spiro[cyclopropane-1,6′-quinoline]-3′-carbonitrile], the IC50 worked out at 67 nM against KRAS G12C, 537 nM in test [1] and 4240 nM in test [2].

In the case of `C=CC(=O)N1CC2(CCN(c3nc4c(c(-c5c(C)ccc6[nH]ncc56)c3C#N)CC(C)(C)C4)C2)C1` [Example 13-12, 6,6-dimethyl-4-(5-methyl-1H-indazol-4-yl)-2-(2-(2-propenoyl)-2,6-diazaspiro[3.4]octan-6-yl)-6,7-dihydro-5H-cyclopenta[b]pyridine-3-carbonitrile], the IC50 at KRAS G12C is 29 nM; in test [1], 157 nM; in test [2], greater than 5000 nM.

As to `C=CC(=O)N1CC2(CCN(c3nc4c(c(-c5c(C)ccc6[nH]ncc56)c3C#N)CC3(CC3)C4)C2)C1` [Example 13-14, 4-(5-methyl-1H-indazol-4-yl)-2-(2-(2-propenoyl)-2,6-diazaspiro[3.4]octan-6-yl)-5,7-dihydrospiro[cyclopenta[b]pyridine-6,1′-cyclopropane]-3-carbonitrile], the IC50 against KRAS G12C is 34 nM; in test [1] it was 517 nM; in test [2] it was greater than 5000 nM.

With `C=CC(=O)N1CC2(CCN(c3nc4c(c(-c5c(C)ccc6[nH]ncc56)c3C#N)COCCC4(F)F)C2)C1` [Example 13-15, 9,9-difluoro-4-(5-methyl-1H-indazol-4-yl)-2-(2-(2-propenoyl)-2,6-diazaspiro[3.4]octan-6-yl)-5,7,8,9-tetrahydrooxepino[4,3-b]pyridine-3-carbonitrile], the IC50 against KRAS G12C was 163 nM; in test [1], 1170 nM; in test [2], greater than 5000 nM.

In the case of `C=CC(=O)N1CC2(CCN(c3nc4c(c(-c5c(C)ccc6cnn(C)c56)c3C#N)CC(C)(C)C4)C2)C1` [Example 13-16, 4-(1,6-dimethyl-1H-indazol-7-yl)-6,6-dimethyl-2-(2-(2-propenoyl)-2,6-diazaspiro[3.4]octan-6-yl)-6,7-dihydro-5H-cyclopenta[b]pyridine-3-carbonitrile], the IC50 at KRAS G12C is 82 nM; in test [1], 393 nM; in test [2], greater than 5000 nM.

For the compound `C=CC(=O)N1CC2(CCN(c3nc4c(c(-c5ccccc5Cl)c3C#N)CCC(c3ccnn3C)C4)C2)C1` [Example 13-19, (7R)-4-(2-chlorophenyl)-7-(1-methyl-1H-pyrazol-5-yl)-2-(2-(2-propenoyl)-2,6-diazaspiro[3.4]octan-6-yl)-5,6,7,8-tetrahydro-3-quinolinecarbonitrile|(7S)-4-(2-chlorophenyl)-7-(1-methyl-1H-pyrazol-5-yl)-2-(2-(2-propenoyl)-2,6-diazaspiro[3.4]octan-6-yl)-5,6,7,8-tetrahydro-3-quinolinecarbonitrile], the IC50 at KRAS G12C is 64 nM; in test [1], 338 nM; in test [2], greater than 5000 nM.

Take `C=CC(=O)N1CC2(CCN(c3nc4c(c(-c5ccccc5Cl)c3C#N)CC[C@@H](c3ccnn3C)C4)C2)C1` [Example 13-20, (7R)-4-(2-chlorophenyl)-7-(1-methyl-1H-pyrazol-5-yl)-2-(2-(2-propenoyl)-2,6-diazaspiro[3.4]octan-6-yl)-5,6,7,8-tetrahydro-3-quinolinecarbonitrile]: the IC50 on KRAS G12C was determined as 12 nM; in test [1], 224 nM; in test [2] it was 3000 nM.

In the case of `C=CC(=O)N1CC2(CCN(c3nc4c(c(-c5ccccc5Cl)c3C#N)CC[C@H](c3ccnn3C)C4)C2)C1` [Example 13-21, (7S)-4-(2-chlorophenyl)-7-(1-methyl-1H-pyrazol-5-yl)-2-(2-(2-propenoyl)-2,6-diazaspiro[3.4]octan-6-yl)-5,6,7,8-tetrahydro-3-quinolinecarbonitrile], the IC50 against KRAS G12C was 62 nM; in test [1], 615 nM; in test [2], greater than 5000 nM.

As to `C=CC(=O)N1CC2(CCN(c3nc4c(c(-c5ccccc5F)c3C#N)CCC(c3ccnn3C)C4)C2)C1` [Example 13-26, (7R)-4-(2-fluorophenyl)-7-(1-methyl-1H-pyrazol-5-yl)-2-(2-(2-propenoyl)-2,6-diazaspiro[3.4]octan-6-yl)-5,6,7,8-tetrahydro-3-quinolinecarbonitrile|(7S)-4-(2-fluorophenyl)-7-(1-methyl-1H-pyrazol-5-yl)-2-(2-(2-propenoyl)-2,6-diazaspiro[3.4]octan-6-yl)-5,6,7,8-tetrahydro-3-quinolinecarbonitrile], the values for the IC50 (at KRAS G12C; in test [1]; in test [2]) were 35 nM, 280 nM and greater than 5000 nM, respectively.

`C=CC(=O)N1CC2(CCN(c3nc4c(c(-c5cc(O)cc6ccccc56)c3C#N)COC(C)(C)C4)C2)C1` [Example 13-41, 4-(3-hydroxy-1-naphthalenyl)-7,7-dimethyl-2-(2-(2-propenoyl)-2,6-diazaspiro[3.4]octan-6-yl)-7,8-dihydro-5H-pyrano[4,3-b]pyridine-3-carbonitrile]: the IC50 against KRAS G12C is 33 nM; in test [1] it was 190 nM; in test [2], greater than 5000 nM.

`C=CC(=O)N1CC2(CCN(c3nc4c(c(-c5c(C)ccc6[nH]ncc56)c3C(=O)OC)CCC(C)(C)C4)C2)C1` [Example 13-44, methyl 7,7-dimethyl-4-(5-methyl-1H-indazol-4-yl)-2-(2-(2-propenoyl)-2,6-diazaspiro[3.4]octan-6-yl)-5,6,7,8-tetrahydro-3-quinolinecarboxylate]: the figures for the IC50 (against KRAS G12C; in test [1]; in test [2]) were 589 nM, 1440 nM and greater than 5000 nM, respectively.

Consider `C=CC(=O)N1CC2(CCN(c3nc4c(c(-c5c(C)ccc6[nH]ncc56)c3C(F)F)COC(C)(C)C4)C2)C1` [Example 13-45, 1-(6-(3-(difluoromethyl)-7,7-dimethyl-4-(5-methyl-1H-indazol-4-yl)-7,8-dihydro-5H-pyrano[4,3-b]pyridin-2-yl)-2,6-diazaspiro[3.4]octan-2-yl)-2-propen-1-one], for which the IC50 was 148 nM at KRAS G12C, 421 nM in test [1] and greater than 5000 nM in test [2].

As for `C=CC(=O)N1CC2(CCN(c3nc4c(c(-c5c(C)ccc6cnn(C)c56)c3C#N)COC(C)(C)C4)C2)C1` [Example 13-49, 4-(1,6-dimethyl-1H-indazol-7-yl)-7,7-dimethyl-2-(2-(2-propenoyl)-2,6-diazaspiro[3.4]octan-6-yl)-7,8-dihydro-5H-pyrano[4,3-b]pyridine-3-carbonitrile], the 50% inhibitory concentration (IC50) at KRAS G12C is 123 nM; in test [1], 442 nM; in test [2], greater than 5000 nM.

With `C=CC(=O)N1CC2(CCN(c3nc4c(c(-c5c(C)ccc6[nH]ncc56)c3C#N)COC3(CCOCC3)C4)C2)C1` [Example 13-50, 4′-(5-methyl-1H-indazol-4-yl)-2′-(2-(2-propenoyl)-2,6-diazaspiro[3.4]octan-6-yl)-2,3,5,5′,6,8′-hexahydrospiro[pyran-4,7′-pyrano[4,3-b]pyridine]-3′-carbonitrile], the concentration for half-maximal inhibition (IC50) on KRAS G12C is 76 nM; in test [1], 198 nM; in test [2] it was greater than 5000 nM.
